“And” between values parts separate entries of the source, which are not always exact repeats. Identical values can stand only once.
Columns and labels:
[1] = system: SF-539; assay: NCI single dose (10 µM) SRB screen; type: cell-based, human; conditions: CNS cancer, 48 h
[2] = system: IGROV1; assay: NCI single dose (10 µM) SRB screen; type: cell-based, human; conditions: ovarian cancer, 48 h
[3] = system: 786-0; assay: NCI single dose (10 µM) SRB screen; type: cell-based, human; conditions: renal cancer, 48 h
[4] = system: COLO 205; assay: NCI single dose (10 µM) SRB screen; type: cell-based, human; conditions: colon cancer, 48 h
[5] = system: U251; assay: NCI single dose (10 µM) SRB screen; type: cell-based, human; conditions: CNS cancer, 48 h
[6] = system: Pseudomonas aeruginosa; assay: Agar well diffusion method
[7] = system: HCT-15; assay: NCI single dose (10 µM) SRB screen; type: cell-based, human; conditions: colon cancer, 48 h
[8] = system: NCI/ADR-RES; assay: NCI single dose (10 µM) SRB screen; type: cell-based, human; conditions: ovarian cancer, 48 h
[9] = system: SK-MEL-2; assay: NCI single dose (10 µM) SRB screen; type: cell-based, human; conditions: melanoma, 48 h
[10] = system: KM12; assay: NCI single dose (10 µM) SRB screen; type: cell-based, human; conditions: colon cancer, 48 h
[11] = system: NCI-H23; assay: NCI single dose (10 µM) SRB screen; type: cell-based, human; conditions: non-small cell lung cancer, 48 h
[12] = system: Staphylococcus aureus; assay: Agar well diffusion method
[13] = system: A549/ATCC; assay: NCI single dose (10 µM) SRB screen; type: cell-based, human; conditions: non-small cell lung cancer, 48 h
[14] = system: SK-MEL-28; assay: NCI single dose (10 µM) SRB screen; type: cell-based, human; conditions: melanoma, 48 h
[15] = system: HCT-116; assay: NCI single dose (10 µM) SRB screen; type: cell-based, human; conditions: colon cancer, 48 h
[16] = system: SNB-19; assay: NCI single dose (10 µM) SRB screen; type: cell-based, human; conditions: CNS cancer, 48 h
[17] = system: MALME-3M; assay: NCI single dose (10 µM) SRB screen; type: cell-based, human; conditions: melanoma, 48 h
[18] = system: HL-60(TB); assay: NCI single dose (10 µM) SRB screen; type: cell-based, human; conditions: leukaemia, 48 h
[19] = system: Escherichia coli; assay: Agar well diffusion method
[20] = system: SF-295; assay: NCI single dose (10 µM) SRB screen; type: cell-based, human; conditions: CNS cancer, 48 h
[21] = system: Bacillus subtilis; assay: Agar well diffusion method
[22] = system: NCI-H522; assay: NCI single dose (10 µM) SRB screen; type: cell-based, human; conditions: non-small cell lung cancer, 48 h
[23] = system: K-562; assay: NCI single dose (10 µM) SRB screen; type: cell-based, human; conditions: leukaemia, 48 h
[24] = system: SN12C; assay: NCI single dose (10 µM) SRB screen; type: cell-based, human; conditions: renal cancer, 48 h
[25] = system: RPMI-8226; assay: NCI single dose (10 µM) SRB screen; type: cell-based, human; conditions: leukaemia, 48 h
[26] = system: HT29; assay: NCI single dose (10 µM) SRB screen; type: cell-based, human; conditions: colon cancer, 48 h
[27] = system: CAKI-1; assay: NCI single dose (10 µM) SRB screen; type: cell-based, human; conditions: renal cancer, 48 h
[28] = system: CCRF-CEM; assay: NCI single dose (10 µM) SRB screen; type: cell-based, human; conditions: leukaemia, 48 h
[29] = system: SK-OV-3; assay: NCI single dose (10 µM) SRB screen; type: cell-based, human; conditions: ovarian cancer, 48 h
[30] = system: TK-10; assay: NCI single dose (10 µM) SRB screen; type: cell-based, human; conditions: renal cancer, 48 h
[31] = system: DU-145; assay: NCI single dose (10 µM) SRB screen; type: cell-based, human; conditions: prostate cancer, 48 h
[32] = system: NCI-H460; assay: NCI single dose (10 µM) SRB screen; type: cell-based, human; conditions: non-small cell lung cancer, 48 h
[33] = system: SR; assay: NCI single dose (10 µM) SRB screen; type: cell-based, human; conditions: leukaemia, 48 h
[34] = system: MDA-MB-468; assay: NCI single dose (10 µM) SRB screen; type: cell-based, human; conditions: breast cancer, 48 h
[35] = system: HOP-92; assay: NCI single dose (10 µM) SRB screen; type: cell-based, human; conditions: non-small cell lung cancer, 48 h
[36] = system: EKVX; assay: NCI single dose (10 µM) SRB screen; type: cell-based, human; conditions: non-small cell lung cancer, 48 h
[37] = system: UACC-62; assay: NCI single dose (10 µM) SRB screen; type: cell-based, human; conditions: melanoma, 48 h
[38] = system: M14; assay: NCI single dose (10 µM) SRB screen; type: cell-based, human; conditions: melanoma, 48 h
[39] = system: MOLT-4; assay: NCI single dose (10 µM) SRB screen; type: cell-based, human; conditions: leukaemia, 48 h
[40] = system: ACHN; assay: NCI single dose (10 µM) SRB screen; type: cell-based, human; conditions: renal cancer, 48 h
[41] = system: UO-31; assay: NCI single dose (10 µM) SRB screen; type: cell-based, human; conditions: renal cancer, 48 h
[42] = system: NCI-H322M; assay: NCI single dose (10 µM) SRB screen; type: cell-based; conditions: non-small cell lung cancer, 48 h
[43] = system: HOP-62; assay: NCI single dose (10 µM) SRB screen; type: cell-based, human; conditions: non-small cell lung cancer, 48 h
[44] = system: OVCAR-5; assay: NCI single dose (10 µM) SRB screen; type: cell-based, human; conditions: ovarian cancer, 48 h
[45] = system: SNB-75; assay: NCI single dose (10 µM) SRB screen; type: cell-based, human; conditions: CNS cancer, 48 h
[46] = system: A498; assay: NCI single dose (10 µM) SRB screen; type: cell-based, human; conditions: renal cancer, 48 h
[47] = system: MDA-MB-435; assay: NCI single dose (10 µM) SRB screen; type: cell-based, human; conditions: melanoma, 48 h
[48] = system: MDA-MB-231; assay: NCI single dose (10 µM) SRB screen; type: cell-based, human; conditions: breast cancer, 48 h
[49] = system: PC-3; assay: NCI single dose (10 µM) SRB screen; type: cell-based, human; conditions: prostate cancer, 48 h
[50] = system: SF-268; assay: NCI single dose (10 µM) SRB screen; type: cell-based, human; conditions: CNS cancer, 48 h
[51] = system: HCC-2998; assay: NCI single dose (10 µM) SRB screen; type: cell-based, human; conditions: colon cancer, 48 h
[52] = system: T-47D; assay: NCI single dose (10 µM) SRB screen; type: cell-based, human; conditions: breast cancer, 48 h
[53] = system: UACC-257; assay: NCI single dose (10 µM) SRB screen; type: cell-based, human; conditions: melanoma, 48 h

CCOC(=O)C1=C(C)NC(C)=C(C(=O)OC)C1c1cccc(C#N)c1 (racemic) [Compound 2g, (±)-3-Ethyl 5-methyl 4-(3-cyanophenyl)-2,6-dimethyl-1,4-dihydropyridine-3,5-dicarboxylate]
GI% SF-539 [1]: – (Only GI% ≥ 10 are shown) | GI% IGROV1 [2]: – (Only GI% ≥ 10 are shown) | GI% 786-0 [3]: – (Only GI% ≥ 10 are shown) | GI% COLO 205 [4]: – (Only GI% ≥ 10 are shown) | GI% U251 [5]: – (Only GI% ≥ 10 are shown) | zone of inhibition at 1000 µg/mL ([6]; Pseudomonas aeruginosa, 24 h, read-out: Diameter of inhibition zone, P. aeruginosa): 21 mm | % activity index, P. aeruginosa ([6]; relative to ciprofloxacin): 91% and 91.3% | GI% HCT-15 [7]: – (Only GI% ≥ 10 are shown) | GI% NCI/ADR-RES [8]: – (Only GI% ≥ 10 are shown) | GI% SK-MEL-2 [9]: – (Only GI% ≥ 10 are shown) | GI% KM12 [10]: – (Only GI% ≥ 10 are shown) | GI% NCI-H23 [11]: – (Only GI% ≥ 10 are shown) | zone of inhibition at 1000 µg/mL ([12]; Staphylococcus aureus, 24 h, read-out: Diameter of inhibition zone, S. aureus): 22 mm | % activity index, S. aureus ([12]; relative to ciprofloxacin): 91% and 91.7% | GI% A549/ATCC [13]: – (Only GI% ≥ 10 are shown) | GI% SK-MEL-28 [14]: – (Only GI% ≥ 10 are shown) | GI% HCT-116 [15]: – (Only GI% ≥ 10 are shown) | GI% SNB-19 [16]: – (Only GI% ≥ 10 are shown) | GI% MALME-3M [17]: – (Only GI% ≥ 10 are shown) | GI% HL-60(TB) [18]: – (Only GI% ≥ 10 are shown) | zone of inhibition at 1000 µg/mL ([19]; Escherichia coli, 24 h, read-out: Diameter of inhibition zone, E. coli): 19 mm | % activity index, E. coli ([19]; relative to ciprofloxacin): 73% and 73.1% | GI% SF-295 [20]: – (Only GI% ≥ 10 are shown) | zone of inhibition at 1000 µg/mL ([21]; Bacillus subtilis, 24 h, read-out: Diameter of inhibition zone, B. subtilis): 19 mm | % activity index, B. subtilis ([21]; relative to ciprofloxacin): 82% and 82.6% | GI% NCI-H522 [22]: – (Only GI% ≥ 10 are shown) | GI% K-562 [23]: – (Only GI% ≥ 10 are shown) | GI% SN12C [24]: – (Only GI% ≥ 10 are shown) | GI% RPMI-8226 [25]: – (Only GI% ≥ 10 are shown) | GI% HT29 [26]: – (Only GI% ≥ 10 are shown) | GI% CAKI-1 [27]: – (Only GI% ≥ 10 are shown) | GI% CCRF-CEM [28]: – (Only GI% ≥ 10 are shown) | GI% SK-OV-3 [29]: – (Only GI% ≥ 10 are shown) | GI% TK-10 [30]: – (Only GI% ≥ 10 are shown) | GI% DU-145 [31]: – (Only GI% ≥ 10 are shown) | GI% NCI-H460 [32]: – (Only GI% ≥ 10 are shown) | GI% SR [33]: 14% | GI% MDA-MB-468 [34]: – (Only GI% ≥ 10 are shown) | GI% HOP-92 [35]: – (Only GI% ≥ 10 are shown) | GI% EKVX [36]: – (Only GI% ≥ 10 are shown) | GI% UACC-62 [37]: – (Only GI% ≥ 10 are shown) | GI% M14 [38]: – (Only GI% ≥ 10 are shown) | GI% MOLT-4 [39]: – (Only GI% ≥ 10 are shown) | GI% ACHN [40]: – (Only GI% ≥ 10 are shown) | GI% UO-31 [41]: – (Only GI% ≥ 10 are shown) | GI% NCI-H322M [42]: – (Only GI% ≥ 10 are shown) | GI% HOP-62 [43]: – (Only GI% ≥ 10 are shown) | GI% OVCAR-5 [44]: – (Only GI% ≥ 10 are shown) | GI% SNB-75 [45]: – (Only GI% ≥ 10 are shown) | GI% A498 [46]: – (Only GI% ≥ 10 are shown) | GI% MDA-MB-435 [47]: – (Only GI% ≥ 10 are shown) | GI% MDA-MB-231 [48]: – (Only GI% ≥ 10 are shown) | GI% PC-3 [49]: – (Only GI% ≥ 10 are shown) | GI% SF-268 [50]: – (Only GI% ≥ 10 are shown) | GI% HCC-2998 [51]: – (Only GI% ≥ 10 are shown) | GI% T-47D [52]: – (Only GI% ≥ 10 are shown) | GI% UACC-257 [53]: – (Only GI% ≥ 10 are shown)
